# Structures can show the parent of a compound that is named as a salt.
# How the values were obtained:
# mexY (EC) strain = assay: Efflux ability inhibition effect on drug efflux pump MexY (Test Examples 1 and 3): proliferation (OD595) of mexY (EC) strain with EM or LVFX at 1/4 MIC, EC75; format: cell-based, Escherichia coli; conditions: Table 51, Test Example 1, 16 to 20 hours culture, OD595; for EC75, mexY (EC) strain, EM: combined with EM at 1/4 MIC; for EC75, mexY (EC) strain, LVFX: combined with LVFX at 1/4 MIC
# Outline: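 E. coli ΔacrB/ΔtolC strains carrying P. aeruginosa MexAB-OprM or MexXY-OprM were grown in LB for 16 to 20 hours with EM or LVFX at ¼ MIC plus compound (0 to 800 μM). Growth was read as OD595. EC75 is the lowest compound concentration giving ≥75% growth inhibition versus antibiotic alone.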
# mexB (EC) strain = assay: Efflux ability inhibition effect on drug efflux pump MexB (Test Examples 1 and 3): proliferation (OD595) of mexB (EC) strain with EM or LVFX at 1/4 MIC, EC75; format: cell-based, Escherichia coli; conditions: for EC75, mexB (EC) strain, EM: combined with EM at 1/4 MIC; for EC75, mexB (EC) strain, LVFX: combined with LVFX at 1/4 MIC
# Method: The efflux ability inhibition effect of the test compound on the drug efflux pump was evaluated using the bacterial proliferative ability in the presence of EM or LVFX as an index.
# EM is a macrolide antibacterial agent and is a drug that is discharged outside the bacteria by MexB and MexY LVFX is a quinolone antibacterial agent and is a drug that is discharged outside the bacteria by MexB and MexY In a case where the test compound has an efflux ability inhibitory ability against the drug efflux pump, the proliferation of bacteria is suppressed by the combined use of EM or LVFX and the test compound, as compared with the case where EM or LVFX is used alone.
# A mutant strain (hereinafter, referred to as an “mexB (EC) strain”) obtained by transferring the genes of the main multidrug efflux system MexAB-OprM of Pseudomonas aeruginosa described in Nature, 2013, Vol. 500, pp. 102 to 106 as a plasmid into Escherichia coli strains in which the acrB and tolC genes of the multidrug efflux system AcrAB-TolC were deleted as described in Journal of Infection and Chemotherapy 2008, Vol. 14, pp. 23 to 29, and a gene transfer strain (hereinafter, referred to as an “mexY (EC) strain”) of another main multidrug efflux system MexXY-OprM of Pseudomonas aeruginosa were used for the evaluation of test compounds.
# In the mexB (EC) strain, an expression level of MexB of the drug efflux pump is accelerated, and in the mexY (EC) strain, an expression level of MexY of the drug efflux pump is accelerated.
# For culturing each Escherichia coli strain, a 96-well plate (amount of culture medium per well: 100 μL) was used and Luria-Bertani broth (LB) culture medium was used. The inoculation amount of the bacteria was set to 10^4 to 5 CFU/well.
# The mexB (EC) strain and the mexY (EC) strain were cultured for 16 to 20 hours in a culture medium to which EM or LVFX and test compounds at various concentrations (0 to 800 μM) were added, and the proliferation of the bacterial strains was evaluated by optical turbidity at 595 nm (OD595). The concentration of the antibacterial agents (EM and LVFX) in the culture medium were each set to ¼ of the minimum inhibitory concentration (MIC) (hereinafter, referred to as ¼ MIC) of the single antibacterial agent.
# The proliferation of bacteria in a case where the antibacterial agent was added at the concentration of ¼ MIC in a case where the test compound was not added was measured, and compared with the proliferation of bacteria in a case where the test compound was contained, and the lowest concentration of the test compound at which the proliferation was inhibited by 75% or more was defined as the drug efflux pump inhibitory ability of the test compound as 75% inhibitory effect concentration (EC75).
# The drug efflux pump inhibitory ability of each test compound in a case of being used in combination with the antibacterial agent against the mexB (EC) strain and the mexY (EC) strain was evaluated as follows according to the value of EC75. • S: EC75≤[…] • A: 12.5 μM<EC75≤25 μM • B: 25 μM<EC75≤100 μM • C: […]
# In the same manner as in Test Example 1, the efflux ability inhibition effect of the test compound on the drug efflux pump was evaluated using the bacterial proliferation ability in the presence of EM or LVFX as an index.
# S-3769 strain = assay: Combinational effect with antibacterial agent against Pseudomonas aeruginosa (Test Examples 2 and 4): S-3769 strain with AMK or GM at 1/4 MIC, EC99; format: cell-based; conditions: S-3769 strain, Test Example 4; for EC99, combinational effect with AMK, S-3769 strain: combined with AMK at 1/4 MIC; for EC99, combinational effect with GM, S-3769 strain: combined with GM at 1/4 MIC
# Outline: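 P. aeruginosa S-3769 (clinical isolate, MexY overexpressed) grown 16–20 h in CAMHB, 10^4 to 5 CFU/well, with AMK or GM at ¼ MIC plus test compound 0–800 μM. Growth read as OD595; EC99 is the lowest compound concentration giving ≥99% growth inhibition.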
# mexB (PA) strain = assay: Combinational effect with antibacterial agent against Pseudomonas aeruginosa (Test Examples 2 and 4): mexB (PA) strain with LVFX, TC or AZT at 1/4 MIC, EC99; format: cell-based; conditions: mexB (PA) strain, Test Example 4; for EC99, combinational effect with AZT, mexB (PA): combined with AZT at 1/4 MIC; for EC99, combinational effect with LVFX, mexB (PA): combined with LVFX at 1/4 MIC; for EC99, combinational effect with TC, mexB (PA): combined with TC at 1/4 MIC
# Outline: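 P. aeruginosa mexB (PA) strain, lacking MexCD-OprJ, MexEF-OprN and MexXY and overexpressing MexAB-OprM, grown 16–20 h in CAMHB (10^4–5 CFU/well) with LVFX, TC or AZT at ¼ MIC plus test compound at 0–800 μM. Growth read as OD595; EC99 is the lowest compound concentration giving ≥99% growth inhibition.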
# [1] = Table 51, Test Example 1, 16 to 20 hours culture, OD595
# [2] = Table 53, Test Example 3, same manner as Test Example 1
Structure (SMILES),"EC75, mexY (EC) strain, EM (mexY (EC) strain)","EC75, mexY (EC) strain, LVFX (mexY (EC) strain)","EC75, mexB (EC) strain, EM (mexB (EC) strain; [1])","EC75, mexB (EC) strain, LVFX (mexB (EC) strain; [1])","EC75, mexB (EC) strain, LVFX (mexB (EC) strain; [2])","EC99, combinational effect with AMK, S-3769 strain (S-3769 strain)","EC99, combinational effect with GM, S-3769 strain (S-3769 strain)","EC99, combinational effect with AZT, mexB (PA) (mexB (PA) strain)","EC99, combinational effect with LVFX, mexB (PA) (mexB (PA) strain)","EC99, combinational effect with TC, mexB (PA) (mexB (PA) strain)"
"N[C@@H](C(=O)N1CCN(Cc2cscn2)CC1)C1CCN(CCc2cc(Cl)ccc2-c2ccccc2)CC1 [Example 13, Hydrobromide of (R)-2-amino-2-(1-(2-(4-chloro-[1,1′-biphenyl]-2-yl)ethyl)piperidin-4-yl)-1-(4-(thiazol-4-ylmethyl)piperazin-1-yl)ethan-1-one]",B (25 μM<EC75≤100 μM),B (25 μM<EC75≤100 μM),B (25 μM<EC75≤100 μM),B (25 μM<EC75≤100 μM),,,,,,
CCOc1cccc(/C=C/C#N)c1CN1CCN(C(=O)[C@H](N)C2CCN(CCc3ccccc3)CC2)CC1 [Example 34],A (12.5 μM<EC75≤25 μM),A (12.5 μM<EC75≤25 μM),B (25 μM<EC75≤100 μM),B (25 μM<EC75≤100 μM),,,,,,
"CCOc1cccc(F)c1CN1CCN(C(=O)[C@H](N)C2CCN(CC(F)(F)c3ccccc3)CC2)CC1 [Example 54, Hydrobromide of (R)-2-amino-2-(1-(2,2-difluoro-2-phenylethyl)piperidin-4-yl)-1-(4-(2-ethoxy-6-fluorobenzyl)piperazin-1-yl) ethan-1-one]",B (25 μM<EC75≤100 μM),B (25 μM<EC75≤100 μM),B (25 μM<EC75≤100 μM),B (25 μM<EC75≤100 μM),,,,,,
"COc1ccccc1CN1CCN(C(=O)[C@@H](N)C2CCN(CCc3ccccc3)CC2)CC1 [Example 112, Hydrochloride of (S)-2-amino-1-(4-(2-methoxybenzyl)piperazin-1-yl)-2-(1-phenethylpiperidin-4-yl)ethan-1-one]",A (12.5 μM<EC75≤25 μM),A (12.5 μM<EC75≤25 μM),B (25 μM<EC75≤100 μM),B (25 μM<EC75≤100 μM),,,,,,
"COCCOc1cccc(F)c1CN1CCN(C(=O)[C@H](N)C2CCN(CCc3ccccc3)CC2)CC1 [Example 116, Hydrochloride of (R)-2-amino-1-(4-(2-fluoro-6-(2-methoxyethoxy)benzyl)piperazin-1-yl)-2-(1-phenethylpiperidin-4-yl)ethan-1-one]",B (25 μM<EC75≤100 μM),B (25 μM<EC75≤100 μM),A (12.5 μM<EC75≤25 μM),A (12.5 μM<EC75≤25 μM),,,,,,
"CN[C@@H](C(=O)N1CCN(Cc2ccccc2OC)CC1)C1CCN(CCc2ccccc2)CC1 [Example 131, hydrochloride of (R)-1-(4-(2-methoxybenzyl)piperazin-1-yl)-2-(methylamino)-2-(1-phenethylpiperidin-4-yl)ethan-1-one]",B (25 μM<EC75≤100 μM),B (25 μM<EC75≤100 μM),B (25 μM<EC75≤100 μM),B (25 μM<EC75≤100 μM),,,,,,
"COc1ccccc1CN1CCN(C(=O)[C@H](N)C2CCN(CCc3ccsc3)CC2)CC1 [Example 133, hydrochloride of (R)-2-amino-1-(4-(2-methoxybenzyl)piperazin-1-yl)-2-(1-(2-(thiophen-3-yl)ethyl)piperidin-4-yl)ethan-1-one]",B (25 μM<EC75≤100 μM),B (25 μM<EC75≤100 μM),,A (12.5 μM<EC75≤25 μM),,,,,,
"COc1ccccc1CN1CCN(C(=O)[C@H](N)C2CCN(CC(CN)c3ccccc3)CC2)CC1 (stereo partly drawn) [Example 136, hydrochloride of (2R)-2-amino-2-(1-(3-amino-2-phenylpropyl)piperidin-4-yl)-1-(4-(2-methoxybenzyl)piperazin-1-yl)ethan-1-one]",B (25 μM<EC75≤100 μM),B (25 μM<EC75≤100 μM),B (25 μM<EC75≤100 μM),,,,,,,
"O=C(O)c1ccccc1CN1CCN(C(=O)CN2CCN(CCc3ccccc3)CC2)CC1 [Example 256, sodium salt of 2-((4-(2-(4-phenethylpiperazin-1-yl)acetyl)piperazin-1-yl)methyl)benzenecarboxylic acid]",B (25 μM<EC75≤100 μM),,B (25 μM<EC75≤100 μM),,,,,,,
"COc1ccccc1CN1CCN(C(=O)C(=NN)C2CCN(CCc3ccccc3)CC2)CC1 [Example 301, hydrochloride of 2-hydrazinyliden-1-(4-(2-methoxybenzyl)piperazin-1-yl)-2-(1-phenethylpiperidin-4-yl)ethan-1-one]",B (25 μM<EC75≤100 μM),B (25 μM<EC75≤100 μM),B (25 μM<EC75≤100 μM),B (25 μM<EC75≤100 μM),,,,,,
"COc1ccccc1CN1CCN(C(=O)C(=NO)C2CCN(CCc3ccccc3)CC2)CC1 [Example 302, hydrochloride of 2-(hydroxyimino)-1-(4-(2-methoxybenzyl)piperazin-1-yl)-2-(1-phenethylpiperidine-4-yl)ethan-1-one]",B (25 μM<EC75≤100 μM),B (25 μM<EC75≤100 μM),B (25 μM<EC75≤100 μM),,,,,,,
"Cl.N[C@@H](C(=O)N1CCN(Cc2c(O)cccc2Cl)CC1)C1CCN(CCc2cc(Cl)ccc2-c2ccccc2)CC1 [Example 574, Hydrochloride of (R)-2-amino-1-(4-(2-chloro-6-hydroxybenzyl)piperazin-1-yl)-2-(1-(2-(4-chloro-[1,1-biphenyl]-2-yl)ethyl)piperidin-4-yl) ethan-1-one]",,,,,S (EC75≤12.5 M),A (12.5 μM<EC99≤25 μM),B (25 μM<EC99≤100 μM),A (12.5 μM<EC99≤25 μM),A (12.5 μM<EC99≤25 μM),A (12.5 μM<EC99≤25 μM)
"CSc1ccccc1CN1CCN(C(=O)[C@H](N)C2CCN(CCc3cc(Cl)ccc3-c3cccc(O)c3Cl)CC2)CC1.Cl [Example 613, Hydrochloride of (R)-2-amino-2-(1-(2-(2′,4-dichloro-3′-hydroxy-[1,1-biphenyl]-2-yl)ethyl)piperidin-4-yl)-1-(4-(2-(methylthio)benzyl)piperazin-1-yl) ethan-1-one]",,,,,S (EC75≤12.5 M),S (EC99≤12.5 μM),A (12.5 μM<EC99≤25 μM),S (EC99≤12.5 μM),S (EC99≤12.5 μM),S (EC99≤12.5 μM)

# Source: patent publication US20250326744A1, “PIPERAZINE DERIVATIVE OR SALT THEREOF, AND PHARMACEUTICAL COMPOSITION” (priority 2022, published 2025)
